According to patent US20070259056A1, “Anti-Tumour Terpene Compounds” (COMPTON DEVELOPMENTS LTD., priority 2003, published 2007):
Where two headings read alike, the source gives them in different places.

Tests used:
[1] = tested on: S180 murine sarcoma cells; experiment: MTT assay, cytotoxicity on S180 cells; conditions: S180 and human tumour cells in culture
Description: Two transformed cell lines were chosen for MTT analysis, S180 murine sarcoma cells and HT1080 human fibrosarcoma cells. Cells were seeded in 96-well microliter plates at a density of 2×10^5 cells/ml and incubated at 37° C. and 5% CO2 for 24 hours prior to treatment. 200 ul PBS was added to the wells on the outer edges of the plate to reduce evaporation loss from the wells containing cells.
Serial dilutions were carried out to enable a range of progressively more dilute concentrations of extract to be tested. The same procedure was followed to make solutions of staurosporine and ethanol of the same concentrations. Staurosporine, an agent with well-established cytotoxic properties, was incorporated into the study to provide a benchmark to compare the cytotoxicity of the extracts against.
Careful mixing with a pipette ensured thorough dissolution. […] This was done immediately after addition of DMSO.
The method was also employed to test the impact of identified components of the Haddi extracts. Thus, trans-β-Ocimene and γ-Bisabolene both major components of the Haddi extract were tested using the MTT assay to estimate their impact on tumour cell cytotoxicity and viability, see FIGS. 7 to 10.

[2] = tested on: A375 cells (a human skin melanoma cell line); experiment: MTT assay, cytotoxicity on A375 cells; format: cell-based; conditions: for % Cytoxicity: A375 cells; for concentration inducing / required to initiate cell death: A375 tumour cells
[3] = tested on: mixed cultures containing fibroblast cells and tumour cells; experiment: Mixed tissue culture of fibroblast cells and tumour cells; format: cell-based; conditions: 12 hrs
Description: In addition when mixed cultures containing fibroblast cells and tumour cells are treated, the normal fibroblasts appear to survive while the tumour cells go into apoptosis.
The results of such an experiment are shown in FIG. 14, wherein a mixed tissue culture has been treated for 12 hrs with 5 uM Bisabolene. […] In FIG. 15 a mixed tissue culture has been treated for 12 hrs with 100 uM Ocimene.

mammals = conditions: cited from earlier work
[4] = tested on: MM6 cells (monocyte leukaemic cell line); conditions: for % Cytoxicity: MM6 cells; for concentration as low as which high cell death is induced: MM6 tumour cells
Description: The MTT assay is a powerful, quantitative and highly reliable colourimetric assay that measures the viability of a cell population. […] The amount of formazan produced is directly proportional to the number of viable cells in the test population. The formazan product formed can be dissolved in dimethyl sulfoxide (DMSO), which enables quantification of the product to be obtained via spectrophotometry. A population containing largely viable cells will produce high levels of the formazan product and will therefore give a deep purple solution upon dissolution with DMSO, while a cell population that has mostly dead cells will produce a colourless solution. The amount of light absorbed (at a wavelength of 575 nm) can be converted to % cytotoxicity by using the following calculation: [control absorption−test absorption]X 100=% cytotoxicity control absorption Experimental Protocol
100 ul of each concentration of each extract/control were added to 3 separate wells in a labeled microtitre plate. In the untreated control wells 100 ul of medium was added—all wells having a total final volume of 200 ul. 3 identical replicates of this were carried out for testing after 24, 48 and 72 hours. All plates were incubated at 37° C. and 5% CO2 until reading.
After the required length of time (i.e. 24, 48 or 72 hours) 20 ul MTT solution (5 mg/ml) was added to each well (excluding wells containing only PBS). Plates were then returned to the incubator (under the same conditions) for a further 4 hours. MTT is photosensitive so all plates were covered in foil to minimise exposure to light. After 4 hours all medium from the wells was pipetted out (care was taken to avoid disturbing the formazan crystals) and 200 ul DMSO was added to each well. Careful mixing with a pipette ensured thorough dissolution. All plates were then read on a spectrophotometer for absorption of light at 575 nm. This was done immediately after addition of DMSO.

[5] = tested on: HT1080 human fibrosarcoma cells; experiment: Annexin V bioassay of apoptosis in HT1080 cells; format: cell-based; conditions: 5 uM, 12 hours
Text: The Annexin V bioassay is used to distinguish between cells dying via the apoptotic route and cells dying by necrosis. Knowing how ocimene and bisabolene cause cell death is crucial. […] This is because necrotic cells burst and release their content into the surroundings, thus causing an inflammatory response that is potentially harmful to neighbouring, non-target cells.
The Annexin V bioassay utilises an early change in the plasma membrane of apoptotic cells during which phosphatidylserine (PS), a membrane bound phospholipid, is translocated from the inner surface of the membrane bi-layer to the outer surface—thus bringing the PS into contact with the environment. This change occurs before membrane bleeding and far earlier than DNA fragmentation thus making it an ideal marker for early apoptotic cells. Annexin V is a Ca^2+-dependent phospholipid binding protein with a high affinity for PS. In this study the Annexin V was coupled to a fluorescent marker called FITC, to generate an Annexin V-FITC conjugate. FITC fluoresces with an intense green/yellow colour when viewed via fluorescent microscopy. Thus, early apoptotic cells will bind Annexin V-FITC on their plasma membranes and fluoresce- green/yellow, whereas late apoptotic cells will fluoresce green/yellow in the cytoplasm as well as at the membrane.
To identify necrotic cells another dying agent, propidium iodide (PI) is used. […]

With `C=C/C(C)=C/CC=C(C)C` [trans-β-Ocimene, trans-β-ocimene] the tumour cell death ([1]; concentrations above 200 mM) was about 100%, the “% Cytoxicity” value ([2]; 46 μM, 24 hours) was 7% and the “% Cytoxicity” value ([2]; 46 μM, 48 hours) was −2%. The “% Cytoxicity” value ([2]; 46 μM, 72 hours) was −33%, the “% Cytoxicity” value ([2]; 92 μM, 24 hours) was −11% and the “% Cytoxicity” value ([2]; 92 μM, 48 hours) was −25%. For the same compound, the “% Cytoxicity” value ([2]; 92 μM, 72 hours) was −31%, the “% Cytoxicity” value ([2]; 184 μM, 24 hours) was 7% and the “% Cytoxicity” value ([2]; 184 μM, 48 hours) was 8%. The “% Cytoxicity” value ([2]; 184 μM, 72 hours) was −10%, the “% Cytoxicity” value ([2]; 368 μM, 24 hours) was 29% and the “% Cytoxicity” value ([2]; 368 μM, 48 hours) was 35%. For the same compound, the “% Cytoxicity” value ([2]; 368 μM, 72 hours) was 31%, the “survival of fibrocytes versus tumour cells in mixed culture” value ([3]; 100 uM) was “fibrocytes spread out and survive whilst tumour cells round off to form apoptotic bodies” and the toxicity to mammals (mammals) was “non toxic to mammals”.

In the case of `CC(C)=CCC[C@](C)(O)C1CC=C(C)CC1` (stereo partly drawn) [α-Bisabolol, α-bisabolol], the “% Cytoxicity” value ([2]; 28 μM, 24 hours) is reported as −2%, the “% Cytoxicity” value ([2]; 28 μM, 72 hours) is reported as 1% and the “% Cytoxicity” value ([2]; 56 μM, 24 hours) is reported as −27%. For the same compound, the “% Cytoxicity” value ([2]; 56 μM, 72 hours) was 10%, the “% Cytoxicity” value ([2]; 112 μM, 24 hours) was 10% and the “% Cytoxicity” value ([2]; 112 μM, 72 hours) was 26%. For the same compound, the “% Cytoxicity” value ([2]; 225 μM, 24 hours) was 31%, the “% Cytoxicity” value ([2]; 225 μM, 72 hours) was 41% and the “concentration inducing / required to initiate cell death” value [2] was 225 µM. The “% Cytoxicity” value ([4]; 0.13 μM, 24 hours) was 48%, the “% Cytoxicity” value ([4]; 0.13 μM, 72 hours) was 53% and the “% Cytoxicity” value ([4]; 0.25 μM, 24 hours) was 48%. For the same compound, the “% Cytoxicity” value ([4]; 0.25 μM, 72 hours) was 54%, the “% Cytoxicity” value ([4]; 2.5 μM, 24 hours) was 46% and the “% Cytoxicity” value ([4]; 2.5 μM, 72 hours) was 51%. For the same compound, the “% Cytoxicity” value ([4]; 10 μM, 24 hours) was 33%, the “% Cytoxicity” value ([4]; 10 μM, 72 hours) was 49% and the “concentration as low as which high cell death is induced” value [4] was 0.13 µM.

For `CC(C)=CCC/C(C)=C1/CC=C(C)CC1` [γ-Bisabolene, γ-bisabolene], the “concentration at which potent” value [1] was “around 50 mM”, the “% Cytoxicity” value ([2]; 0.13 μM, 24 hours) was 15% and the “% Cytoxicity” value ([2]; 0.13 μM, 48 hours) was 5%. The “% Cytoxicity” value ([2]; 0.13 μM, 72 hours) was 13%, the “% Cytoxicity” value ([2]; 0.25 μM, 24 hours) was 10% and the “% Cytoxicity” value ([2]; 0.25 μM, 48 hours) was 7%. The “% Cytoxicity” value ([2]; 0.25 μM, 72 hours) was 50%, the “% Cytoxicity” value ([2]; 2.5 μM, 24 hours) was 15% and the “% Cytoxicity” value ([2]; 2.5 μM, 48 hours) was 55%. For the same compound, the “% Cytoxicity” value ([2]; 2.5 μM, 72 hours) was 71%, the “% Cytoxicity” value ([2]; 10 μM, 24 hours) was 23% and the “% Cytoxicity” value ([2]; 10 μM, 48 hours) was 64%. The “% Cytoxicity” value ([2]; 10 μM, 72 hours) was 77%, the “concentration inducing / required to initiate cell death” value [2] was 0.25 µM and the “induction of apoptotic cell death (Annexin V)” value [5] was “induction of apoptotic cell death”. The “survival of fibrocytes versus tumour cells in mixed culture” value ([3]; 5 uM) was “fibrocytes survive whilst tumour cells round off as apoptotic bodies”, the “% Cytoxicity” value ([4]; 0.13 μM, 24 hours) was 3% and the “% Cytoxicity” value ([4]; 0.13 μM, 48 hours) was −37%. The “% Cytoxicity” value ([4]; 0.13 μM, 72 hours) was 13%, the “% Cytoxicity” value ([4]; 0.25 μM, 24 hours) was 49% and the “% Cytoxicity” value ([4]; 0.25 μM, 48 hours) was 68%. For the same compound, the “% Cytoxicity” value ([4]; 0.25 μM, 72 hours) was 80%, the “% Cytoxicity” value ([4]; 2.5 μM, 24 hours) was 51% and the “% Cytoxicity” value ([4]; 2.5 μM, 48 hours) was 70%. The “% Cytoxicity” value ([4]; 2.5 μM, 72 hours) was 78%, the “% Cytoxicity” value ([4]; 10 μM, 24 hours) was 45% and the “% Cytoxicity” value ([4]; 10 μM, 48 hours) was 67%. For the same compound, the “% Cytoxicity” value ([4]; 10 μM, 72 hours) was 78% and the “concentration as low as which high cell death is induced” value [4] was 0.25 µM.
